The text below walks through data of patent US20100216779A1 (GLAXOSMITHKLINE LLC, priority 2007, published 2010).

SMILES strings stand for the structures. pIC50: −log10 of the molar value.

Common to all, as to format: cell-based
Assay [1] deals with T1, IR (NIH-3T3 cells over expressing human IGF-1R or IR) (Homo sapiens, UniProt P06213).
T1 construct: expressed in transfected cells; host or cells: NIH-3T3 (mouse fibroblasts)
In words: IR cellular autophosphorylation (DELFIA). To be noted: NIH-3T3 cells over expressing IR, insulin stimulated. As to the method: D. IGF-1R and IR Cellular Autophosphorylation (DELFIA)
NIH-3T3 cells over expressing human IGF-1R or IR were plated in 96-well plates (10,000 cells/well) in culture media containing 10% fetal bovine serum and incubated at 37° C. in a 5% CO2 incubator. Twenty four hours post-plating, cells were treated with different concentrations of test compounds ranging from 30 uM to 1.5 nM. Two hours after compound addition, cells were stimulated with either human IGF-1 (30 ng/mL) or insulin (3 ug/mL) for 15 minutes. Cell lysates are analyzed for phosphorylated receptors using dissociation enhanced lanthanide fluor-immuno assay (DELFIA) with anti-IGF-1R (MAB391, R&D Systems, Minneapolis, Minn.) or anti-IR[…](sc-711, Santa Cruz Biotechnology, Santa Cruz, Calif.) capture antibody and europium-labeled anti-pTyr antibody (Eu-N1 PT66, Perkin Elmer, Waltham, Mass.) for detection. The fluorescence signal for cells treated with compounds was expressed as percent relative to 100% stimulation (IGF-1 or insulin stimulated signal). […]

Assay [2] concerns the target T2, human IGF-1R (NIH-3T3 cells over expressing human IGF-1R) (Homo sapiens, UniProt P08069).
T2 construct: expressed in transfected cells; host or cells: NIH-3T3 (mouse fibroblasts)
Nature of the assay: IGF-1R cellular autophosphorylation (DELFIA). Particulars: IGF-1 stimulated. The method, boiled down: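 Autophosphorylation of IGF-1R or IR is measured in NIH-3T3 lines overexpressing each human receptor after 2 h compound pretreatment and a 15 min ligand challenge (IGF-1 30 ng/mL; insulin 3 ug/mL). Fluorescence is normalised to 100% stimulation.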

For a further assay, the system named is COLO205 (colon). In words: Inhibition of cell proliferation, CellTiter-Glo, COLO205. Particulars: Homo sapiens, COLO 205, 72 h. The method, boiled down: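 Exponentially growing COLO205 cells in medium with 10% FBS were plated below 2000 cells/well at 37 °C, 5% CO2. Untreated wells served as controls.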
For orientation: In ATP-based viability assays light output follows the ATP content of the culture.

T1 sequence (P06213 28-1382): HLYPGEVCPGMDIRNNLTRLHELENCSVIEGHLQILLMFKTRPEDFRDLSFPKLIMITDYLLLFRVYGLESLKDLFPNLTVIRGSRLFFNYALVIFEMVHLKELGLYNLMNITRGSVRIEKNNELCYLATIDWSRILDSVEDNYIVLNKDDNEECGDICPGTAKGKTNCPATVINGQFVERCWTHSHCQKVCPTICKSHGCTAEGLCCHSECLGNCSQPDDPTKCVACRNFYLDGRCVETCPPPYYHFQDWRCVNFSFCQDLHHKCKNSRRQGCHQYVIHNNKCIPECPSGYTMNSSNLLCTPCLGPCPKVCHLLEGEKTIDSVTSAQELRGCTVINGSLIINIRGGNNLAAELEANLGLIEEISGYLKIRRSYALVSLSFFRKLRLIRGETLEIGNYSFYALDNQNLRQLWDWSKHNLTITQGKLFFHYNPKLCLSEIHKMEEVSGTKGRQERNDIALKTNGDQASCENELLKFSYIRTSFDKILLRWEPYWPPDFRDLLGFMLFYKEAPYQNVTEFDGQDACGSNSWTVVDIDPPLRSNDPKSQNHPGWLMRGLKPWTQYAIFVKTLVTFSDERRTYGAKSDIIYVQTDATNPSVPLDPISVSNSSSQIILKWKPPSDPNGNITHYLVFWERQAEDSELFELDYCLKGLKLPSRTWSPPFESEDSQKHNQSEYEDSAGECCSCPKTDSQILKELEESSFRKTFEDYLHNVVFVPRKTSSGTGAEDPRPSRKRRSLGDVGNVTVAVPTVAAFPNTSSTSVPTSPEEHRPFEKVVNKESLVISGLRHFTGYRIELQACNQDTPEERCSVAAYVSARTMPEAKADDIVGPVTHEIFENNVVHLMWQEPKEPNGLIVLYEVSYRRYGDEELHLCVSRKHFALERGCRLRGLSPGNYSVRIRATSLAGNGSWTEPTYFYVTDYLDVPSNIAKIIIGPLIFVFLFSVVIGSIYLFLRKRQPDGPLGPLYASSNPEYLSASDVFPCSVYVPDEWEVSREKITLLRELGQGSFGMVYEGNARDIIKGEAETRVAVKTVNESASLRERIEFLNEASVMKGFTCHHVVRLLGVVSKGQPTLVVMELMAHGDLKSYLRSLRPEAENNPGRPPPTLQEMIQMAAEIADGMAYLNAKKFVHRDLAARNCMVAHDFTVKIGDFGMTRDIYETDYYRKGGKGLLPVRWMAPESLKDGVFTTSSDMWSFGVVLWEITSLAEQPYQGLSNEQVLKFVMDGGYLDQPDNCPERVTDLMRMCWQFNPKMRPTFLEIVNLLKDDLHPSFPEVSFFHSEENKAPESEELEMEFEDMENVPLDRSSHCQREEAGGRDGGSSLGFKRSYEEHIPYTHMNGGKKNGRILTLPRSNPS
T2 sequence (P08069 31-1367): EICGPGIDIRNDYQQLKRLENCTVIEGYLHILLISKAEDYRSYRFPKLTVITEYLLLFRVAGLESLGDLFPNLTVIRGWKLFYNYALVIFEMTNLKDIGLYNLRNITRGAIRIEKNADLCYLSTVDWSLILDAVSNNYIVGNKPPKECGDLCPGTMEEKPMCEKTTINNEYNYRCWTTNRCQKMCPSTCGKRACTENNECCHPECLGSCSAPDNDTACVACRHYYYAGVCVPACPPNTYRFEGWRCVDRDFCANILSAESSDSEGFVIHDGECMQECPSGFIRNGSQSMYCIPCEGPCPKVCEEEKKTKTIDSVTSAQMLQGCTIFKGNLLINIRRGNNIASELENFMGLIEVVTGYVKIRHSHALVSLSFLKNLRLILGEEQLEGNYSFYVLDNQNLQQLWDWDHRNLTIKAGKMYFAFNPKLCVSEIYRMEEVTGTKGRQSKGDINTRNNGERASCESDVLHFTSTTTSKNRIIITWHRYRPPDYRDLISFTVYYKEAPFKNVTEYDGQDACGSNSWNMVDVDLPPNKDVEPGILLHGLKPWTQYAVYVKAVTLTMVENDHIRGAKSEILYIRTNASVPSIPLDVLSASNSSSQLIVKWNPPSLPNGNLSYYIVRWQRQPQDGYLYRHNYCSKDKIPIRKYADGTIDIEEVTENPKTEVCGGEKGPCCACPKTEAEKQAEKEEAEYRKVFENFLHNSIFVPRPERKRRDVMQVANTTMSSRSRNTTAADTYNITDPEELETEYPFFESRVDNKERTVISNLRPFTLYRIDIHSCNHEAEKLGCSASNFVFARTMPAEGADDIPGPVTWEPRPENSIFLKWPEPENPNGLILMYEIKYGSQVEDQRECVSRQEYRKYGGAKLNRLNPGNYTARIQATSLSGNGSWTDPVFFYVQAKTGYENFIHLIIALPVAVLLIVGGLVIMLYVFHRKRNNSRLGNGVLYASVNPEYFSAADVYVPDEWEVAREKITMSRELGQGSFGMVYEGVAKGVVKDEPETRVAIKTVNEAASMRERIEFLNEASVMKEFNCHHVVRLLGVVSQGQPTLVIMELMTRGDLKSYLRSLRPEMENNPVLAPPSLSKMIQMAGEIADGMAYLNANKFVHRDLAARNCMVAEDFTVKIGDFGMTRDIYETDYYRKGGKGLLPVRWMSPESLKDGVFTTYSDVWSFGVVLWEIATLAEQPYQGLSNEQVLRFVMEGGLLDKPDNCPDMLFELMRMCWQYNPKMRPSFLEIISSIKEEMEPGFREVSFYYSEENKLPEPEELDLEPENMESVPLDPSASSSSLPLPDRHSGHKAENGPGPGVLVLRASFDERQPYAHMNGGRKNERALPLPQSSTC

By pIC50 is commonly meant −log10 of the IC50, conventionally taken in molar units. On to `COc1cc(N2CCC(N3CCCCC3)CC2)ccc1Nc1nccc(-c2c(-c3cccc(C(=O)Nc4ccc(F)cc4F)c3)nc3ccccn23)n1` [Example 72, 3-[3-(2-{[4-(1,4′-bipiperidin-1′-yl)-2-(methyloxy)phenyl]amino}-4-pyrimidinyl)imidazo[1,2-a]pyridin-2-yl]-N-(2,4-difluorophenyl)benzamide], for which the negative-log IC50 (pIC50) in assay [1] is above 7.00; in assay [2], above 7.00; with COLO205 (colon) it was 6.00 to 6.60.

As for `CC(C)COc1cc(N2CCC(N3CCCCC3)CC2)ccc1Nc1nccc(-c2c(-c3cccc(C(=O)Nc4c(F)cccc4F)c3)nc3ccccn23)n1` [Example 32, 3-{3-[2-({4-(1,4′-bipiperidin-1′-yl)-2-[(2-methylpropyl)oxy]phenyl}amino)-4-pyrimidinyl]imidazo[1,2-a]pyridin-2-yl}-N-(2,6-difluorophenyl)benzamide], the pIC50 in assay [1] was below 6.30; in assay [2] it was below 6.30; in the assay on COLO205 (colon) it was 6.00 to 6.60.

As to `O=C(Nc1c(F)cccc1F)c1cccc(-c2nc3ccccn3c2-c2ccnc(Nc3ccc(N4CCC(N5CCCCC5)CC4)cc3)n2)c1` [Example 82, 3-[3-(2-{[4-(1,4′-bipiperidin-1′-yl)phenyl]amino}-4-pyrimidinyl)imidazo[1,2-a]pyridin-2-yl]-N-(2,6-difluorophenyl)benzamide], the pIC50 in assay [1] was 6.30 to 7.00; in assay [2] it was above 7.00; in the assay with COLO205 (colon), above 6.60.

Take `COc1cc(N2CCC(N3CCCCC3)CC2)ccc1Nc1nccc(-c2c(-c3cccc(C(=O)Nc4ccc(F)cc4Cl)c3)nc3ccccn23)n1` [Example 44, 3-[3-(2-{[4-(1,4′-bipiperidin-1′-yl)-2-(methyloxy)phenyl]amino}-4-pyrimidinyl)imidazo[1,2-a]pyridin-2-yl]-N-(2-chloro-4-fluorophenyl)benzamide]: the pIC50 in assay [1] was 6.30 to 7.00; in assay [2] it was above 7.00; with COLO205 (colon), 6.00 to 6.60.

`Cc1cc(N2CCC(N3CCCCC3)CC2)ccc1Nc1nccc(-c2c(-c3cccc(C(=O)Nc4c(F)cccc4F)c3)nc3ccccn23)n1` [Example 53, 3-[3-(2-{[4-(1,4′-bipiperidin-1′-yl)-2-methylphenyl]amino}-4-pyrimidinyl)imidazo[1,2-a]pyridin-2-yl]-N-(2,6-difluorophenyl)benzamide]: the pIC50 in assay [1] is 6.30 to 7.00; in assay [2], above 7.00; with COLO205 (colon) it was 6.00 to 6.60.

With `COc1cc(N2CCC(N3CCC[C@H](O)C3)CC2)ccc1Nc1nccc(-c2c(-c3cccc(C(=O)Nc4c(F)cccc4F)c3)nc3ccccn23)n1` [Example 83, N-(2,6-difluorophenyl)-3-[3-(2-{[4-[(3S)-3-hydroxy-1,4′-bipiperidin-1′-yl]-2-(methyloxy)phenyl]amino}-4-pyrimidinyl)imidazo[1,2-a]pyridin-2-yl]benzamide], the results for the negative logarithm of the IC50 (pIC50) (in assay [1]; in assay [2]; in the assay with COLO205 (colon)) were 6.30 to 7.00, above 7.00 and 6.00 to 6.60, respectively.

With `COc1cc(N2CCN(CCS(C)(=O)=O)CC2)ccc1Nc1nccc(-c2c(-c3cccc(C(=O)Nc4c(F)cccc4F)c3)nc3ccccn23)n1` [Example 136, N-(2,6-difluorophenyl)-3-(3-{2-[(2-(methyloxy)-4-{4-[2-(methylsulfonyl)ethyl]-1-piperazinyl}phenyl)amino]-4-pyrimidinyl}imidazo[1,2-a]pyridin-2-yl)benzamide], the pIC50 in assay [1] was above 7.00; in assay [2] it was above 7.00; in the assay on COLO205 (colon) it was 6.00 to 6.60.

Take `CCOc1ccc(-c2nc3ccccn3c2-c2ccnc(Nc3ccc(CCN4CCN(C)CC4)cc3OC)n2)cc1C(=O)Nc1c(F)cccc1F` [Example 133, N-(2,6-difluorophenyl)-2-(ethyloxy)-5-{3-[2-({2-(methyloxy)-4-[2-(4-methyl-1-piperazinyl)ethyl]phenyl}amino)-4-pyrimidinyl]imidazo[1,2-a]pyridin-2-yl}benzamide]: the pIC50 is above 7.00 in assay [1], above 7.00 in assay [2] and 6.00 to 6.60 in the assay with COLO205 (colon).

With `COc1ccn2c(-c3ccnc(Nc4cccc(OCCN(C)C)c4)n3)c(-c3cccc(C(=O)Nc4cccc(F)c4F)c3)nc2c1` [Example 15, N-(2,3-difluorophenyl)-3-[3-{2-[(3-{[2-(dimethylamino)ethyl]oxy}phenyl)amino]-4-pyrimidinyl}-7-(methyloxy)imidazo[1,2-a]pyridin-2-yl]benzamide], the pIC50 in assay [1] is below 6.30; in assay [2], 6.30 to 7.00; in the assay on COLO205 (colon) it was above 6.60.

With `COc1cc(N2CCC(N3C[C@@H]4C[C@H]3CN4CCF)CC2)ccc1Nc1nccc(-c2c(-c3cccc(C(=O)Nc4c(F)cccc4F)c3)nc3ccccn23)n1` [Example 86, N-(2,6-difluorophenyl)-3-[3-(2-{[4-{4-[(1 S,4S)-5-(2-fluoroethyl)-2,5-diazabicyclo-[2.2.1]hept-2-yl]-1-piperidinyl}-2-(methyloxy)phenyl]amino}-4-pyrimidinyl)imidazo[1,2-a]pyridin-2-yl]benzamide], the pIC50 in assay [1] was above 7.00; in assay [2], above 7.00; in the assay on COLO205 (colon), 6.00 to 6.60.

For the molecule `COc1cc(N2CCC(N3CCCCC3)CC2)c(Cl)cc1Nc1nccc(-c2c(-c3cccc(C(=O)Nc4c(F)cccc4F)c3)nc3ccccn23)n1` [Example 104, 3-[3-(2-{[4-(1,4′-bipiperidin-1′-yl)-5-chloro-2-(methyloxy)phenyl]amino]-4-pyrimidinyl)imidazo[1,2-a]pyridin-2-yl]-N-(2,6-difluorophenyl)benzamide], the results for the pIC50 (in assay [1]; in assay [2]; in the assay with COLO205 (colon)) were above 7.00, above 7.00 and 6.00 to 6.60, respectively.

Consider `COc1cc(N2CCN(C3CCN(CCF)CC3)CC2)ccc1Nc1nccc(-c2c(-c3cccc(C(=O)Nc4c(F)cccc4F)c3)nc3ccccn23)n1` [Example 90, N-(2,6-difluorophenyl)-3-[3-(2-{[4-{4-[1-(2-fluoroethyl)-4-piperidinyl]-1-piperazinyl}-2-(methyloxy)phenyl]amino}-4-pyrimidinyl)imidazo[1,2-a]pyridin-2-yl]benzamide], for which the results for the pIC50 (in assay [1]; in assay [2]; with COLO205 (colon)) were above 7.00, above 7.00 and 6.00 to 6.60, respectively.

`COc1cc(N2CCC(N3CCCCC3)CC2)ccc1Nc1nccc(-c2c(-c3cccc(C(=O)Nc4c(F)cccc4F)c3)nc3c(C)cccn23)n1` [Example 43, 3-[3-(2-{[4-(1,4′-bipiperidin-1-yl)-2-(methyloxy)phenyl]amino}-4-pyrimidinyl)-8-methylimidazo[1,2-a]pyridin-2-yl]-N-(2,6-difluorophenyl)benzamide]: the pIC50 was 6.30 to 7.00 in assay [1], above 7.00 in assay [2] and 6.00 to 6.60 in the assay with COLO205 (colon).

As to `COc1cc(CCCN2CCCCC2)ccc1Nc1nccc(-c2c(-c3cccc(C(=O)Nc4c(F)cccc4F)c3)nc3ccccn23)n1` [Example 139, N-(2,6-difluorophenyl)-3-{3-[2-({2-(methyloxy)-4-[3-(1-piperidinyl)propyl]phenyl}amino)-4-pyrimidinyl]imidazo[1,2-a]pyridin-2-yl}benzamide], the pIC50 in assay [1] was 6.30 to 7.00; in assay [2] it was above 7.00; in the assay on COLO205 (colon) it was 6.00 to 6.60.

Take `COc1cc(N2CCC(N3CCC(O)CC3)CC2)ccc1Nc1nccc(-c2c(-c3cccc(C(=O)Nc4c(F)cccc4F)c3)nc3ccccn23)n1` [Example 80, N-(2,6-difluorophenyl)-3-[3-(2-{[4-(4-hydroxy-1,4′-bipiperidin-1′-yl)-2-(methyloxy)-phenyl]amino}-4-pyrimidinyl)imidazo[1,2-a]pyridin-2-yl]benzamide]: the negative-log IC50 (pIC50) in assay [1] was above 7.00; in assay [2], above 7.00; in the assay on COLO205 (colon), above 6.60.

On to `COc1cc(N2CCC(CN3CCCCC3)CC2)ccc1Nc1nccc(-c2c(-c3cccc(C(=O)Nc4c(F)cccc4F)c3)nc3ccccn23)n1` [Example 36, N-(2,6-difluorophenyl)-3-{3-[2-({2-(methyloxy)-4-[4-(1-piperidinylmethyl)-1-piperidinyl]phenyl}amino)-4-pyrimidinyl]imidazo[1,2-a]pyridin-2-yl}benzamide], for which the figures for the pIC50 (in assay [1]; in assay [2]; with COLO205 (colon)) were above 7.00, above 7.00 and 6.00 to 6.60, respectively.

Consider `COc1cc(N2CCC(N3CCCCC3)CC2)c(C)cc1Nc1nccc(-c2c(-c3ccc(OC)c(C(=O)Nc4c(F)cccc4F)c3)nc3ccccn23)n1` [Example 109, 5-[3-(2-{[4-(1,4′-bipiperidin-1′-yl)-5-methyl-2-(methyloxy)phenyl]amino]-4-pyrimidinyl)imidazo[1,2-a]pyridin-2-yl]-N-(2,6-difluorophenyl)-2-(methyloxy)benzamide], for which the negative logarithm of the IC50 (pIC50) was above 7.00 in assay [1], above 7.00 in assay [2] and above 6.60 in the assay on COLO205 (colon).

Take `COc1ccc(-c2nc3ccccn3c2-c2ccnc(Nc3cccc(OCCN(C)C)c3)n2)cc1C(=O)Nc1c(F)cccc1F` [Example 1, N-(2,6-difluorophenyl)-5-(3-{2-[(3-{[2-(dimethylamino)ethyl]oxy}phenyl)-amino]-4-pyrimidinyl}imidazo[1,2-a]pyridin-2-yl)-2-(methyloxy)benzamide]: the pIC50 in assay [1] is 6.30 to 7.00; in assay [2], above 7.00; in the assay on COLO205 (colon), above 6.60.
